Experimental data from ChEMBL document CHEMBL4818987, “Recent advances of podophyllotoxin/epipodophyllotoxin hybrids in anticancer activity, mode of action, and structure-activity relationship: An update (2010-2020)” (Eur J Med Chem, 2020).

How the values were obtained:
HeLa [1] = test: Antiproliferative activity against human HeLa cells incubated for 24 hrs by MTT assay; format: functional, cell-based
A549 [2] = test: Antiproliferative activity against human A549 cells incubated for 24 hrs by MTT assay; format: functional, cell-based; conditions: A549, 24 h
Calu-1 = test: Antiproliferative activity against human Calu-1 cells incubated for 24 hrs by MTT assay; format: functional, cell-based; conditions: Calu-1, 24 h
HeLa [3] = test: Antiproliferative activity against human HeLa cells incubated for 48 hrs by MTT assay; format: functional, cell-based
MCF7 = test: Antiproliferative activity against human MCF7 cells incubated for 48 hrs by MTT assay; format: functional, cell-based; conditions: MCF7, 48 h
A549 [4] = test: Antiproliferative activity against human A549 cells incubated for 48 hrs by MTT assay; format: functional, cell-based; conditions: A549, 48 h
HepG2 = test: Antiproliferative activity against human HepG2 cells incubated for 48 hrs by MTT assay; format: functional, cell-based; conditions: HepG2, 48 h
K562 = test: Cytotoxicity against human K562 cells incubated for 72 hrs by CCK8 assay; format: functional, cell-based; conditions: K562, 72 h
[5] = Resistance index, ratio of IC50 for human K562/ADR cells to IC50 for human K562 cells; format: functional
K562/Adr = test: Cytotoxicity against human K562/ADR cells incubated for 72 hrs by CCK8 assay; format: functional, cell-based
SW480 = test: Antiproliferative activity against human SW480 cells incubated for 48 hrs by MTT assay; format: functional, cell-based; conditions: SW480, 48 h
HL-60 = test: Antiproliferative activity against human HL-60 cells incubated for 48 hrs by MTT assay; format: functional, cell-based; conditions: HL-60, 48 h
SMMC-7721 = test: Antiproliferative activity against human SMMC-7721 cells incubated for 48 hrs by MTT assay; format: functional, cell-based; conditions: SMMC-7721, 48 h

| SMILES | IC50 (HeLa [3]) [nM] | IC50 (MCF7) [nM] | IC50 (A549 [4]) [nM] | IC50 (HepG2) [nM] | other results |
| --- | --- | --- | --- | --- | --- |
| COc1cc([C@@H]2c3cc4c(cc3[C@H](OC(=O)CCCCC3CCSC(c5ccccc5C)S3)[C@H]3COC(=O)[C@H]23)OCO4)cc(OC)c1OC (some centres not stated) |  |  |  |  | IC50 (HeLa [1]): 2680 nM; IC50 (A549 [2]): 2680 nM; IC50 (Calu-1): 2680 nM |
| COc1cc([C@@H]2c3cc4c(cc3[C@@H](O[C@@H]3CC[C@@H](O)[C@H](C)O3)[C@H]3COC(=O)[C@H]23)OCO4)cc(OC)c1O | 41.6 | 41.6 | 41.6 | 41.6 |  |
| COc1cc([C@@H]2c3cc4c(cc3[C@H](OC(=O)CCCCC3CCSC(c5cccc(Cl)c5Cl)S3)[C@H]3COC(=O)[C@H]23)OCO4)cc(OC)c1OC (some centres not stated) |  |  |  |  | IC50 (HeLa [1]): 2680 nM; IC50 (A549 [2]): 2680 nM; IC50 (Calu-1): 2680 nM |
| CC[C@H]1O[C@H](O[C@@H]2c3cc4c(cc3[C@@H](c3cc(OC)c(O)c(OC)c3)[C@H]3C(=O)OC[C@@H]32)OCO4)CC[C@H]1O | 41.6 | 41.6 | 41.6 | 41.6 |  |
| COc1cc([C@@H]2c3cc4c(cc3[C@H](OC(=O)/C=C/c3ccc(Cl)cc3)[C@H]3COC(=O)[C@H]23)OCO4)cc(OC)c1OC |  |  |  |  | IC50 (K562): 11 nM; Ratio IC50 [5]: 1.1; IC50 (K562/Adr): 11 nM |
| COc1cc([C@@H]2c3cc4c(cc3[C@@H](O[C@H]3CC[C@@H](O)[C@@H](C)O3)[C@H]3COC(=O)[C@H]23)OCO4)cc(OC)c1O | 41.6 | 41.6 | 41.6 | 41.6 |  |
| COc1ccc(/C=C/C(=O)O[C@H]2c3cc4c(cc3[C@@H](c3cc(OC)c(OC)c(OC)c3)[C@H]3C(=O)OC[C@@H]32)OCO4)cc1 |  |  |  |  | IC50 (K562): 11 nM; Ratio IC50 [5]: 1.1; IC50 (K562/Adr): 11 nM |
| COc1ccccc1C1SCCC(CCCCC(=O)O[C@H]2c3cc4c(cc3[C@@H](c3cc(OC)c(OC)c(OC)c3)[C@H]3C(=O)OC[C@@H]32)OCO4)S1 (some centres not stated) |  |  |  |  | IC50 (HeLa [1]): 2680 nM; IC50 (A549 [2]): 2680 nM; IC50 (Calu-1): 2680 nM |
| COc1cc([C@@H]2c3cc4c(cc3[C@H](OC(=O)CCCCC3CCSC(c5ccccc5Cl)S3)[C@H]3COC(=O)[C@H]23)OCO4)cc(OC)c1OC (some centres not stated) |  |  |  |  | IC50 (HeLa [1]): 2680 nM; IC50 (A549 [2]): 2680 nM; IC50 (Calu-1): 2680 nM |
| COc1cc([C@@H]2c3cc4c(cc3[C@@H](n3cc(COC(=O)CCCCCNC(=O)CCCC[C@@H]5SC[C@@H]6NC(=O)N[C@@H]65)nn3)[C@H]3COC(=O)[C@H]23)OCO4)cc(OC)c1OC |  | > 130 | > 130 |  | IC50 (SW480): > 130 nM; IC50 (HL-60): > 130 nM; IC50 (SMMC-7721): > 130 nM |
| CCC[C@@H]1O[C@@H](O[C@H]2c3cc4c(cc3[C@@H](c3cc(OC)c(OC)c(OC)c3)[C@H]3C(=O)OC[C@@H]32)OCO4)CC[C@H]1O | 41.6 | 41.6 | 41.6 | 41.6 |  |
| COc1cc([C@@H]2c3cc4c(cc3[C@H](OC(=O)/C=C/c3cccc(Cl)c3)[C@H]3COC(=O)[C@H]23)OCO4)cc(OC)c1OC |  |  |  |  | IC50 (K562): 11 nM; Ratio IC50 [5]: 1.1; IC50 (K562/Adr): 11 nM |
| COc1cc([C@@H]2c3cc4c(cc3[C@@H](O[C@H]3O[C@H](COC(C)=O)[C@@H](OC(C)=O)[C@H](OC(C)=O)[C@H]3OC(C)=O)[C@H]3COC(=O)[C@H]23)OCO4)cc(OC)c1O |  | > 140 | > 140 |  | IC50 (SW480): > 140 nM; IC50 (HL-60): > 140 nM; IC50 (SMMC-7721): > 140 nM |
| COc1cc([C@@H]2c3cc4c(cc3[C@@H](O[C@@H]3CC[C@@H](O)[C@H](C(C)C)O3)[C@H]3COC(=O)[C@H]23)OCO4)cc(OC)c1O | 41.6 | 41.6 | 41.6 | 41.6 |  |
| COc1cc([C@@H]2c3cc4c(cc3[C@H](OC(=O)CCCCC3CCSC(c5ccc(C(C)C)cc5)S3)[C@H]3COC(=O)[C@H]23)OCO4)cc(OC)c1OC (some centres not stated) |  |  |  |  | IC50 (HeLa [1]): 2680 nM; IC50 (A549 [2]): 2680 nM; IC50 (Calu-1): 2680 nM |
| CCC[C@H]1O[C@@H](O[C@@H]2c3cc4c(cc3[C@@H](c3cc(OC)c(O)c(OC)c3)[C@H]3C(=O)OC[C@@H]32)OCO4)CC[C@H]1O | 41.6 | 41.6 | 41.6 | 41.6 |  |
| COc1cc([C@@H]2c3cc4c(cc3[C@@H](O[C@@H]3CC[C@@H](O)[C@@H](C(C)C)O3)[C@H]3COC(=O)[C@H]23)OCO4)cc(OC)c1O | 41.6 | 41.6 | 41.6 | 41.6 |  |
| COc1cc([C@@H]2c3cc4c(cc3[C@@H](n3cc(COC(=O)CCCC[C@@H]5SC[C@@H]6NC(=O)N[C@@H]65)nn3)[C@H]3COC(=O)[C@H]23)OCO4)cc(OC)c1OC |  | > 130 | > 130 |  | IC50 (SW480): > 130 nM; IC50 (HL-60): > 130 nM; IC50 (SMMC-7721): > 130 nM |
